Source: patent US20040176361A1, “Fused heterocyclic compound and medicinal use thereof” (priority 2001, published 2004)
Where a name gives a salt, the structure may show the parent alone. Read-outs that look alike come from different tables or passages of the source.

Columns and labels:
[1] = Stability test in 0.1 mol/L aqueous citric acid solution (HPLC residual ratio); assay type: physicochemical; details: 5 mg in 1 ml 0.1 mol/L aqueous citric acid, room temperature
Procedure: Each test compound (5 mg) was dissolved in 0.1 mol/L aqueous citric acid solution (1 ml), and the residual ratio of each compound was measured by HPLC under shading or no shading at room temperature one day and 8 days later. The residual ratio was calculated by comparing the area of HPLC immediately after dissolution of each compound with the area of HPLC one day or 8 days later.
column CAPCELPAK UG120 (C18)(Shiseido Co., Ltd.)
mobile phase 50 mmol/L aqueous sodium perchlorate solution (pH
detection wavelength 254 nm

adrenalin α1 receptor = test: Affinity for adrenalin α1 receptor; 3H-prazosin binding; details: rat brain crude synapse membrane, 25° C. 30 min
Procedure: Preparation of crude synapse membrane and binding experiment were performed according to European Journal of Pharmacology, vol. 55, page 323 (1979). Crude synapse membranes were prepared from cryopreserved rat brain tissues, and a membrane sample and 3H-prazosin were incubated in the presence of a test compound at 25° C. for 30 min. […] The amount of non-specific binding was determined in the presence of 1 μM prazosin. The 50% suppression concentration (IC50) of the test compound was calculated from nonlinear regression, and the inhibition constant (Ki value) was determined.

Recombinant human PARP = Recombinant human PARP (Homo sapiens, UniProt P09874); test: PARP enzyme activity inhibitory action; details: for IC50: 3H-NAD, activated DNA, 25° C. 15 min
Chain of Recombinant human PARP (P09874 whole entry): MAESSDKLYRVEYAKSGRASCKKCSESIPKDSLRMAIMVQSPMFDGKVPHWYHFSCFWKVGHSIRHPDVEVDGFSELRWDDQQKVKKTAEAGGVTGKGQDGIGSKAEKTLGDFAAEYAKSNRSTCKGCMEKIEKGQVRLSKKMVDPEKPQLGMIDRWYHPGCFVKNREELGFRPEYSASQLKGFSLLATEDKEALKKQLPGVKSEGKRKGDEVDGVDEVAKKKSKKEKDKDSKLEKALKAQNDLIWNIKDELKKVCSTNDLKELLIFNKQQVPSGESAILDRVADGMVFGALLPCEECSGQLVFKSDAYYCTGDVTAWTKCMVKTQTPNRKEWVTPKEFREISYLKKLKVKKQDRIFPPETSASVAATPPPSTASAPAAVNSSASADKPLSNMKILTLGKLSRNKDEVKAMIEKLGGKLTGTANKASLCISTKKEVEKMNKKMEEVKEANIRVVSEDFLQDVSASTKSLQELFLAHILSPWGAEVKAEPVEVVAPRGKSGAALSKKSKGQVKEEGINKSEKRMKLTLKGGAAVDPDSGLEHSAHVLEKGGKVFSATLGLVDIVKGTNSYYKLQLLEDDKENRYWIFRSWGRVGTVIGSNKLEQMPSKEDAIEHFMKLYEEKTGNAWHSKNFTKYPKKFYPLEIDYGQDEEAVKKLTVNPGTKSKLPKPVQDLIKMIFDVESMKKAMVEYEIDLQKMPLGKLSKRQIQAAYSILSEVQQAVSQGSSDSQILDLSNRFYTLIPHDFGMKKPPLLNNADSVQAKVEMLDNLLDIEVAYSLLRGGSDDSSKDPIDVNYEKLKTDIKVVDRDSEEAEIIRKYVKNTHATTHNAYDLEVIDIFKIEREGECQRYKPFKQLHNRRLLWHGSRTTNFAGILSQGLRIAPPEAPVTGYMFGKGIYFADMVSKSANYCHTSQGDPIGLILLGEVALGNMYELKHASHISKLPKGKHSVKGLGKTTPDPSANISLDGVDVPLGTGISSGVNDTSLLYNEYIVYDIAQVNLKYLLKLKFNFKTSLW
Procedure: After incubation at 25° C. for 15 min., the reaction was quenched with 20% trichloroacetic acid, and the resulting acid insoluble fraction was adsorbed on a GF/B filter. The filter was washed several times with 5% trichloroacetic acid, and the radiation dose on the filter was measured by liquid scintillation counter.

P388D1 cells = test: Hydrogen peroxide (H2O2) induced cytotoxicity suppressive action; assay type: cell-based; details: H2O2 (2 mM), 4 hr, LDH activity, read-out: Cell death suppressive action IC50
Procedure: P388D1 cells cultured to confluence in a 25 cm^2 flask were sown in 96-well plate at a density of […]. The test compound was added, and the cells were incubated for 15 min (37° C.), after which H2O2 (2 mM) was added, and the cells were incubated for 4 hr. After the completion of the incubation, the culture supernatant was recovered, and the LDH activity, which is an index of cytotoxicity, was measured using an LDH-cytotoxicity test kit (Wako Pure Chemical Industries, Ltd.).

[2] = PARP inhibitory activity IC50 (nM), average of 3 measurements
[3] = PARP inhibitory activity IC50 (nM), average of 2 measurements

Structure (SMILES): CN1CCN(c2cc3ccccc3c(=O)[nH]2)CC1 [Example Y-3011, reference compound]
- residual ratio (%) under shading 1 day later [1]: 76%
- residual ratio (%) under shading 8 days later [1]: 32%
- Ki (adrenalin α1 receptor): 4000 nM
- IC50 (Recombinant human PARP; [2]): 50 nM
- PARP inhibitory activity (in words) (Recombinant human PARP; comparison drawn from Table 1): most superior PARP inhibitory activity

Structure (SMILES): CN1CCC(c2cc3c(O)cccc3c(=O)[nH]2)CC1 [Example 108, 5-hydroxy-3-(1-methylpiperidin-4-yl)-2H-isoquinolin-1-one]
- residual ratio (%) under shading 1 day later [1]: ≈100%
- residual ratio (%) under shading 8 days later [1]: ≈100%
- residual ratio (%) without shading 1 day later [1]: ≈100%
- residual ratio (%) without shading 8 days later [1]: ≈100%
- IC50 (Recombinant human PARP; [2]): 12 nM
- IC50 (P388D1 cells; Mus musculus): 124 nM

Structure (SMILES): CN1CCC(c2cc3c(N)cccc3c(=O)[nH]2)CC1 [Example 181, 5-amino-3-(1-methylpiperidin-4-yl)-2H-isoquinolin-1-one]
- IC50 (Recombinant human PARP; [2]): 22 nM
- IC50 (P388D1 cells; Mus musculus): 220 nM

Structure (SMILES): O=c1[nH]c(CCN2CCCCC2)cc2c(O)cccc12 [Example 189, 5-hydroxy-3-(2-(piperidin-1-yl)ethyl)-2H-isoquinolin-1-one]
- IC50 (Recombinant human PARP; [2]): 17 nM
- IC50 (P388D1 cells; Mus musculus): 85 nM

Structure (SMILES): Cc1cccc2c(=O)[nH]c(CCCN(C)C)cc12 [Example 90, 3-(3-(dimethylamino)propyl)-5-methyl-2H-isoquinolin-1-one]
- IC50 (Recombinant human PARP; [2]): 26 nM
- IC50 (P388D1 cells; Mus musculus): 140 nM

Structure (SMILES): O=C1NCCc2c(OCCCCN3CCCCC3)cccc21 [DPQ, 3,4-dihydro-5-[4-(1-piperidinyl)-butoxy]-1(2H)-isoquinoline, reference compound]
- IC50 (Recombinant human PARP; read-out: PARP inhibitory activity IC50, average of 3 measurements): 1000 nM
- IC50 (P388D1 cells): 3300 nM

Structure (SMILES): Cc1cccc2c(=O)[nH]c(N3CCC(N(C)C)CC3)cc12 [Example 12, 5-methyl-3-(4-dimethylaminopiperidin-1-yl)-2H-isoquinolin-1-one]
- IC50 (Recombinant human PARP; [3]): 34 nM
- IC50 (Recombinant human PARP; [2]): 37 nM
- IC50 (P388D1 cells; Mus musculus): 110 nM

Structure (SMILES): CN(C)CCCc1cc2c(O)cccc2c(=O)[nH]1 [Example 186, 5-hydroxy-3-(3-dimethylaminopropyl)-2H-isoquinolin-1-one hydrochloride]
- IC50 (Recombinant human PARP; [2]): 14 nM
- IC50 (P388D1 cells; Mus musculus): 130 nM

Structure (SMILES): CN1CCC(c2cc3ccccc3c(=O)[nH]2)CC1 [Example 82, 3-(1-methylpiperidin-4-yl)-2H-isoquinolin-1-one ⅕ water adduct]
- residual ratio (%) under shading 1 day later [1]: ≈100%
- residual ratio (%) under shading 8 days later [1]: ≈100%
- residual ratio (%) without shading 1 day later [1]: ≈100%
- residual ratio (%) without shading 8 days later [1]: ≈100%
- IC50 (Recombinant human PARP; [2]): 34 nM
- IC50 (P388D1 cells; Mus musculus): 190 nM

Structure (SMILES): Cc1cccc2c(=O)[nH]c(C3CCN(C)CC3)cc12 [Example 178, 5-methyl-3-(1-methylpiperidin-4-yl)-2H-isoquinolin-1-one]
- IC50 (Recombinant human PARP; [2]): 23 nM
- IC50 (P388D1 cells; Mus musculus): 90 nM

Structure (SMILES): Cc1cccc2c(=O)[nH]c(C3CCN(C)CC3)nc12 [Example 121, 2-(1-methylpiperidin-4-yl)-8-methyl-3H-quinazolin-4-one]
- residual ratio (%) under shading 1 day later [1]: ≈100%
- residual ratio (%) under shading 8 days later [1]: ≈100%
- IC50 (Recombinant human PARP; [2]): 37 nM
- IC50 (P388D1 cells; Mus musculus): 240 nM

Structure (SMILES): Cc1cccc2c(=O)[nH]c(N3CCN(C)[C@H](CO)C3)cc12 [Example 212, (S)-3-(3-hydroxymethyl-4-methylpiperazin-1-yl)-5-methyl-2H-isoquinolin-1-one]
- Ki (adrenalin α1 receptor): > 100000 nM
- IC50 (Recombinant human PARP; [2]): 23 nM
- IC50 (P388D1 cells; Mus musculus): 70 nM

Structure (SMILES): Cc1cccc2c(=O)[nH]c(N3CCN(C)CC3)cc12 [Example 1, 5-methyl-3-(4-methylpiperazin-1-yl)-2H-isoquinolin-1-one]
- IC50 (Recombinant human PARP; [3]): 42 nM
- IC50 (Recombinant human PARP; [2]): 38 nM
- IC50 (P388D1 cells; Mus musculus): 120 nM

Structure (SMILES): CN1CCN(c2cc3ccccc3c(=O)[nH]2)C[C@H]1CO [Example 156, (S)-3-(3-hydroxymethyl-4-methylpiperazin-1-yl)-2H-isoquinolin-1-one]
- Ki (adrenalin α1 receptor): > 100000 nM
- IC50 (Recombinant human PARP; [2]): 35 nM
- IC50 (P388D1 cells; Mus musculus): 230 nM

Structure (SMILES): CN1CCN(c2cc3c(F)cccc3c(=O)[nH]2)CC1 [Example 20, 5-fluoro-3-(4-methylpiperazin-1-yl)-2H-isoquinolin-1-one]
- melting point: 238 to 239 °C (dec.)
- IC50 (Recombinant human PARP; [2]): 75 nM
